One assay has as its system ANCL iNs. Briefly: Lipofuscin autofluorescence in ANCL iNs. Type of assay: cell-based, human. Conditions: ANCL iNs treated for 56 d from iN conversion (prevention); compared to control; FIG. 7E. How it is done: ANCL patient-derived fibroblasts were treated with 200 μM of L1 or Dfx, or vehicle (0.1% DMSO=Control) for 72 h, before measuring the UV-Vis absorbance spectra of immunoprecipitated CSPα eluted by trypsinization (solid lines). Spectra were re-read after 10 min of 0.1 N HCl treatment (dashed lines). The experiments shown in FIGS. 7B-7I, were conducted using ANCL fibroblasts converted to iNs using BAM+ND1 technique. […] Quantitative immunoblotting was used to measure levels of oligomerized and fully palmitoylated CSPα as well as total SNAP-25. Oligo=oligomers; Palm=palmitoylated. […] The interaction of CSPα with SNAP-25 in ANCL iNs was measured by immunoprecipitating SNAP-25 followed by quantitative immunoblotting of co-immunoprecipitated CSPα (normalized to SNAP-25 IP). Note that mainly CSPα monomers and not oligomers were detected bound to SNAP-25. […] Turnover of SNAP-25 was determined by cycloheximide chase, while maintaining the iron-chelators or vehicle in the medium. […] In the experiments shown in FIGS. 7E-7G, ANCL iNs treated with L1, Dfx, or vehicle for 56 d and analyzed. […] The levels of lipofuscin were determined by ELISA. In the experiments shown in FIGS. 7H-7I 56 day old untreated ANCL iNs were treated with L1, Dfx, or vehicle, and analyzed. […]
Effect of iron chelators on the accumulation of lipofuscin was monitored by ELISA for lipofuscin or based on lipofuscin autofluorescence. […]

The subject of another assay is CSPα. Put plainly: CSPα oligomerization and palmitoylation in ANCL patient-derived induced neurons (quantitative immunoblotting). Particulars: ANCL iNs; 72 h; compared to vehicle alone; FIG. 7B. Type of assay: cell-based, human. How it is done:
ANCL patient-derived fibroblasts were treated with 200 μM of L1 or Dfx, or vehicle (0.1% DMSO=Control) for 72 h, before measuring the UV-Vis absorbance spectra of immunoprecipitated CSPα eluted by trypsinization (solid lines). Spectra were re-read after 10 min of 0.1 N HCl treatment (dashed lines). The experiments shown in FIGS. 7B-7I, were conducted using ANCL fibroblasts converted to iNs using BAM+ND1 technique. […] Quantitative immunoblotting was used to measure levels of oligomerized and fully palmitoylated CSPα as well as total SNAP-25. Oligo=oligomers; Palm=palmitoylated. […] The interaction of CSPα with SNAP-25 in ANCL iNs was measured by immunoprecipitating SNAP-25 followed by quantitative immunoblotting of co-immunoprecipitated CSPα (normalized to SNAP-25 IP). Note that mainly CSPα monomers and not oligomers were detected bound to SNAP-25. Control=control sham IP without IgG. […] Turnover of SNAP-25 was determined by cycloheximide chase, while maintaining the iron-chelators or vehicle in the medium. […] In the experiments shown in FIGS. 7E-7G, ANCL iNs treated with L1, Dfx, or vehicle for 56 d and analyzed. […] The levels of lipofuscin were determined by ELISA. In the experiments shown in FIGS. 7H-7I 56 day old untreated ANCL iNs were treated with L1, Dfx, or vehicle, and analyzed. […] Data are from FIG. 7A representative of n=4, FIG. 7B n=4, FIG. 7C n=4, FIG. 7D n=7, FIG. 7F n=4, FIG. 7G n=4, FIG. 7H n=6, FIG. 7I n=3. In FIGS. 7B-7C and FIGS. 7F-7G *P<0.05; **P<0.01; ****P<0.0001 by two-tailed Student's t-test. #P<0.05 by Mann-Whitney-Wilcoxon U test. In FIG. 7D-7C and FIGS. 7H-7I **P<0.01; ***P<0.001; ****P<0.0001 by two-way ANOVA; ##P<0.01; ###P<0.001; ####P<0.0001 by Tukey's multiple comparisons test.
For pharmacological iron-chelation, deferiprone (L1; 200 μM; Biotang), deferoxamine mesylate (Dfx; 200 μM; Calbiochem), or 0.1% DMSO as vehicle control were added to the respective culture media of primary cortical neurons, fibroblasts, or iNs. When these media were changed, the fresh media contained identical concentration of the respective iron-chelator or vehicle.
Fibroblasts from an affected person carrying the L116Δ mutation were obtained, and an age-and-sex matched unaffected fibroblast line was frozen, thawed and cultured in parallel to maintain similar passage numbers. Fibroblasts were maintained in DMEM supplemented with 10% fetal bovine serum supplemented with L-glutamine, penicillin, and streptomycin. […]
For SDS-PAGE, 10-15% Laemmli gels (10.3% T and 3.3% C) were used to separate proteins on Bio-Rad apparati. […] Immunoblots were washed 5× with TBS-T and dried, then scanned on Odyssey CLx (LI-COR) and quantified using Image-Studio software (LI-COR). […]
Background: Immunoblotting shows a protein as a band on a membrane.

As to `CC(=O)N(O)CCCCCNC(=O)CCC(=O)N(O)CCCCCNC(=O)CCC(=O)N(O)CCCCCN` [Dfx, N′-[5-(Acetyl-hydroxy-amino)pentyl]-N-[5-[3-(5-aminopentyl-hydroxy-carbamoyl)propanoylamino]pentyl]-N-hydroxy-butane diamide], the lipofuscin autofluorescence result with ANCL iNs is “reduced”. In addition, in the assay on CSPα, the “oligomerization of CSPα” value is reported as “reduced the oligomerization” and the “palmitoylation of CSPα” value is given as “improved palmitoylation”.
As for `Cc1c(O)c(=O)ccn1C` [L1, 3-hydroxy-1,2-dimethyl-4(1H)-pyridone], the lipofuscin autofluorescence entry in the assay on ANCL iNs was “reduced”. Besides, in the assay on CSPα, the “oligomerization of CSPα” value is given as “reduced the oligomerization” and the “palmitoylation of CSPα” value is listed as “improved palmitoylation”.
